Measurements taken from patent US20220402980A1, “CHROMOGRANIN A-DERIVED PEPTIDES AND USES THEREOF” (OSPEDALE SAN RAFFAELE S.R.L., priority 2019, published 2022).
Where a SMILES comes first, the peptide text is derived from it.

Legend:
α5β1 = molecular target: T1, α5β1 (Homo sapiens, UniProt P05556+P08648); experiment: Competitive integrin binding assay (isoDGR/STV-HRP probe), α5β1-coated plates
T1 construct: purchased Immunological Sciences (Rome, Italy)
Description: (§1) Peptide binding was measured by a competitive binding assay using as integrin probe a complex made by a N-terminal acetylated isoDGR peptide biotinylated at the E-amino group of the lysine, acetyl-Ciso[…]-bio (SEQ ID No. 29), and a streptavidin-peroxidase conjugate (called isoDGR/STV-HRP)[43].
(§2) Each mixture was then added to integrin-coated wells and left to incubate for 2 h at room temperature. After washing with 25 mM Tris-HCl, pH 7.4, containing 150 mM sodium chloride, 1 mM magnesium chloride, 1 mM manganese chloride, each well was filled with a chromogenic solution (o-phenylenediamine dihydrochloride) and left to incubate for 30 min at room temperature. The chromogenic reaction was stopped by adding 1 N sulfuric acid. The absorbance at 490 nm was then measured using a microtiterplate reader. Ki values were calculated by non-linear regression analysis of competitive binding data using the “One site - Fit Ki” equation of the GraphPad Prism Software using the Kd values of the probe indicated above.

[1] = molecular target: T2, αvβ6 on human bladder cancer 5637 cells (Homo sapiens, UniProt P06756+P18564); experiment: Effect of peptides on binding of anti-αvβ6 mAb 10D5 to 5637 cells (FACS); format: cell-based; settings: competition with mAb 10D5
T2 construct: cell-surface expressed αvβ6 on human bladder cancer 5637 cells; host or cells: human bladder cancer 5637 cells

[2] = tested on: human bladder carcinoma 5637 cells; experiment: 5637 cell viability (PrestoBlue); format: cell-based; settings: 48 h
Description: FIG. 12. Effect of peptides 4 and 5 on human bladder carcinoma 5637 cell viability. 5637 cells were seeded in a 96-well microtiterplate (20,000 cell/well) and cultured for 16 h at 37° C., 5% CO2. The day after the indicated doses of peptide 4 and 5 were added to the cells and left to incubate for additionally 48 h at 37° C., 5% CO2. Cell viability was assessed using the PrestoBlue* cell viability reagent (ThermoFisher) according to the manufacturer's instructions. Viability of the treated cells was normalized to that of untreated cells and is reported as a percentage (mean±SE of triplicate wells).

αvβ8 = αvβ8 (Homo sapiens, UniProt P06756+P26012); experiment: Competitive integrin binding assay (isoDGR/STV-HRP probe), αvβ8-coated plates; settings: Table 3a and text; ± standard error of the mean; read-out: Ki αvβ8
Description: as §1, §2

αvβ6 = molecular target: T3, αvβ6 (Homo sapiens, UniProt P06756+P18564); experiment: Competitive integrin binding assay (isoDGR/STV-HRP probe), αvβ6-coated plates; settings: Table 3a and text; ± standard error of the mean; read-out: Ki αvβ6
T3 construct: recombinant human αvβ6 extracellular domain (R&D Systems); purchased R&D Systems (Minneapolis, Minn.)
Description: as §1, §2

[3] = Peptide stability in mouse liver microsomal preparations (RP-HPLC); format: in vitro ADME; settings: C57BL/6, mouse, liver microsomes; 37° C.; read-out: t1/2 in mouse liver microsomes (converted)
Description: FIG. 14. Stability of peptides 4 and 5 in murine liver microsomes as determined by RP-HPLC. a) RP-HPLC of 4 and 5 after incubation at 37° C. in murine liver microsomes. Peak 1 corresponds to 4 and 5. The peptides were added to murine liver microsomes (454 - μg/ml, final concentration) and incubated for the indicated time, diluted with an equal volume of 90% acetonitrile containing 0.1% TFA and analyzed onto a LiChrospher C18 column (16 ag). No peptide indicates liver microsome aliquot without the peptide. b) Quantification of Peak 1 area (left panel) and height (right panel) of the indicated peptides. The corresponding half-life is also shown.
The stability of compound 4 and 5 in mouse liver microsomal preparations was assessed by HPLC analysis. To this aim microsomes were prepared as follows: 11 g of mouse liver tissue (C57BL/6 mice) was homogenized in cold PBS supplemented with 0.25 M sucrose (3 ml/g of tissue) using a Potter-Elvehjem homogenizer (10 strokes), followed by additional homogenization using a rotor-stator homogenizer (40 sec). The homogenate was filtered through 70 pm cell-strainers, centrifuged three times to remove insoluble materials (500 x g, 5 min; 3000 x g, 30 min; 110000 x g, 90 min, 4° C.). […] Protein concentration was measured by measuring the absorbance at 280 nm with a NanoDrop spectrophotometer (Thermo Scientific). […]

αvβ5 = molecular target: T4, αvβ5 (Homo sapiens, UniProt P06756+P18084); experiment: Competitive integrin binding assay (isoDGR/STV-HRP probe), αvβ5-coated plates; settings: Table 3a; ± standard error of the mean
T4 construct: purchased Immunological Sciences (Rome, Italy)
Description: as §1, §2

[4] = molecular target: T5, αvβ6 on human keratinocytes (HaCat) (Homo sapiens, UniProt P06756+P18564); experiment: Effect of peptides on binding of anti-αvβ6 mAb 10D5 to HaCaT cells (FACS); format: cell-based; settings: competition with mAb 10D5
T5 construct: endogenous in cells; host or cells: human skin keratinocytes HaCaT

Question: Which Ki (α5β1) does the source give for CC(C)C[C@H](NC(=O)[C@H](CC(=O)O)NC(=O)CNC(=O)[C@H](CCCNC(=N)N)NC(=O)[C@H](CC(C)C)NC(=O)[C@H](CC(N)=O)NC(=O)[C@@H]1CCCN1C(=O)[C@@H](NC(=O)[C@H](C)NC(=O)[C@@H](N)CC(N)=O)C(C)C)C(=O)N[C@@H](CCC(N)=O)C(=O)N[C@H](C(=O)N[C@@H](CC(C)C)C(=O)N[C@@H](C)C(=O)N[C@@H](CCC(N)=O)C(=O)N[C@@H](CCCCN)C(=O)N[C@H](C(=O)N[C@@H](C)C(=O)N[C@@H](CCCNC(=N)N)C(=O)N[C@H](C(=O)O)[C@@H](C)O)C(C)C)C(C)C [peptide 6] here?
Answer: The Ki was 2317 ± 10 nM.

Question: For CC[C@H](C)[C@H](NC(=O)[C@H](CCCNC(=N)N)NC(=O)[C@H](CC(C)C)NC(=O)[C@H](CC(=O)O)NC(=O)CNC(=O)[C@H](CCCNC(=N)N)NC(=O)[C@H](CC(C)C)NC(=O)[C@@H](NC(=O)[C@H](CCC(=O)O)NC(=O)[C@@H](N)Cc1ccccc1)[C@@H](C)O)C(=O)N[C@@H](CC(C)C)C(=O)N[C@@H](CO)C(=O)N[C@H](C(=O)N[C@@H](CC(C)C)C(=O)N[C@@H](CCCNC(=N)N)C(=O)N[C@@H](Cc1c[nH]cn1)C(=O)N[C@@H](CCC(N)=O)C(=O)N[C@@H](CC(N)=O)C(=O)N[C@@H](CC(C)C)C(=O)N[C@@H](CC(C)C)C(=O)N[C@@H](CCCCN)C(=O)N[C@@H](CCC(=O)O)C(=O)N[C@@H](CC(C)C)C(=O)N[C@@H](CCC(N)=O)C(=O)N[C@@H](CC(=O)O)C(=O)O)[C@@H](C)CC [peptide 4] (H-FETLRGDLRILSILRHQNLLKELQD-OH; N-terminus and C-terminus assumed), which “binding to cell-surface expressed αvβ6” value [1] is on record?
Answer: The value was “bound cell-surface expressed αvβ6”.

Question: What about the cytotoxicity in vitro [2] of the same compound?
Answer: Its cytotoxicity in vitro is “not cytotoxic”.

Question: And the Ki (αvβ8)?
Answer: The Ki was 8.5 ± 3.7 nM.

Question: What about the Ki (αvβ6) of the same compound?
Answer: The Ki was 1.6 ± 0.3 nM.

Question: What about the half-life at 454 μg/ml [3] of the same compound?
Answer: Its half-life at 454 μg/ml is 1.3 h.

Question: And the Ki (αvβ5)?
Answer: The Ki was 2410 ± 1590 nM.

Question: What about the “binding to cell-surface expressed αvβ6” value [4] of the same compound?
Answer: The value was “bound cell-surface expressed αvβ6”.
